What was measured:
11β-HSD2 = molecular target: T1, 11β-HSD2 (Homo sapiens, UniProt P80365); experiment: Cellular assay of 11β-HSD2 activity in HepG2 cells; assay type: cell-based; settings: 4 hour pre-incubation, 10^-5M to 10^-10M, read-out: HSD2 cellular HepG2 Score
T1 construct: endogenous in cells; host or cells: HepG2 (ATCC HB-8065)
T1 sequence (P80365 1-405): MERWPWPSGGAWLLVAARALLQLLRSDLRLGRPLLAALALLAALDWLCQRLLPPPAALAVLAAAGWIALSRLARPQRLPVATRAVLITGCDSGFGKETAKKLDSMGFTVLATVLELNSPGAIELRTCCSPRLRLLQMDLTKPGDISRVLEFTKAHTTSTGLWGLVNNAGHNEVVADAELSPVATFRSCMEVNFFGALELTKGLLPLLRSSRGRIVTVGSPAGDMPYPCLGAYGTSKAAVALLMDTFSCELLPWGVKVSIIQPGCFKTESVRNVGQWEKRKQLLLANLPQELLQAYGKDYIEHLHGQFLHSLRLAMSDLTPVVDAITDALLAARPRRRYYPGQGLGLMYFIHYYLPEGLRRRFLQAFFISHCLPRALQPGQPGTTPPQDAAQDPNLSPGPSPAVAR
Procedure: The effects on 11β-HSD2 activity was studied in HepG2 and LCC-PK1-cells HepG2-cells (ATCC HB-8065) were seeded in 12 well plates at a density of 100,000 cells/ml and grown at 37° C. in a humidified 5% CO2 atmosphere in MEM-Rega-3 medium supplemented with 10% heat inactivated foetal calf serum, 2 mM L-glutamine and sodium bicarbonate). Medium was refreshed twice a week.
Following a 4 hour pre-incubation with test compound, 0.5 μCi ^3H-cortisol or corticosterone, was added to the cultures. One hour later, the medium was extracted on Extrelut^3-columns with 15 ml diethyl ether and the extract was analysed by HPLC as described above.
(§1) As for the enzymatic assays, the compounds to be tested were taken from a stock solution and tested at a final concentration ranging from 10^−5M to 10^−10M. From the thus obtained dose response curves, the pIC50 value was calculated and scored as follows; Score 1=pIC50 value<5, Score 2=pIC50 value in the range of 5 to 6, Score 3=pIC50 value>6. (in this table NT stands for Not Tested).

11β-HSD1 = molecular target: T2, 11β-HSD1 (Mus musculus, UniProt P50172); experiment: Cellular assay of 11β-HSD1 activity in differentiated 3T3-L1 cells; assay type: cell-based; settings: 4 hour pre-incubation, 10^-5M to 10^-10M, read-out: HSD1 cellular 3T3-L1 Score
T2 construct: endogenous in cells; host or cells: 3T3-L1 (ATCC-CL-173), differentiated into adipocytes
Procedure: The effects on 11β-HSD1 activity was measured in differentiated 3T3-L1 cells and rat hepatocytes.
Mouse fibroblast 3T3-L1 cells (ATCC-CL-173) were seeded at a density of 16500 cells/ml in 12 well plates and grown for 7 days in DMEM medium (supplemented with 10% heat inactivated foetal calf serum, 2 mM glutamine and 25 mg gentamycin) at 37° C. in a humidified 5% CO2 atmosphere. Medium was refreshed twice a week. Fibroblasts were differentiated into adipocytes at 37° C. in a 5% CO2 humidified atmosphere in growth medium containing 2 μg/ml insulin, 55 μg/ml IBMX and 39.2 μg/ml dexamethasone.
Primary hepatocytes from male rats were seeded on normal Falcon 12 well plates at a density of 250000 cells/well and incubated for 16 hours at 37° C. in a 5% CO2 humidified atmosphere in DMEM-HAM's F12 medium containing 5% Nu-serum, 100 U/ml penicillin, 100 μg/ml streptomycin, 0.25 μg/ml amphotericin B, 50 μg/ml gentamycin sulfate, 5 μg/ml insulin and 392 ng/ml dexamethasone. Following a 4 hour pre-incubation with test compound, 0.5 μCi ^3H-cortisone or dehydrocorticosterone, was added to the 3T3-L1 cultures. One hour later, the medium was extracted on Extrelut^3-columns with 15 ml diethyl ether and the extract was analysed by HPLC as described above. The effects of JNJ-compounds on rat hepatocyte HSD1 activity was measured after an incubation period of 90 minutes with 0.5 μCi^3H-dehydrocorticosterone. Corticosterone formation was analysed by HPLC.
as §1

T2 sequence (P50172 whole entry): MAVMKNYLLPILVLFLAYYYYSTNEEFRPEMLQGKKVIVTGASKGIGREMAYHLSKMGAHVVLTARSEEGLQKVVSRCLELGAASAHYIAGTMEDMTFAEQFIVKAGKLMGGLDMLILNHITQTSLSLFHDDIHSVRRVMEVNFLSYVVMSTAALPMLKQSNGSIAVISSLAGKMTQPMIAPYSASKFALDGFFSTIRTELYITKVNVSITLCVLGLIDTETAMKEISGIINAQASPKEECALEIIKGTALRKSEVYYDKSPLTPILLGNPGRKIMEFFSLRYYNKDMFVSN

| IC50 (11β-HSD2) | IC50 (11β-HSD1) | Compound |
| --- | --- | --- |
| > 10 µM | < 1 µM | COc1cccc(NC(C)(C)C(=O)N[C@H]2[C@@H]3CC4C[C@H]2C[C@](O)(C4)C3)c1 [Compound 53] |
| > 10 µM | < 1 µM | CC(C)(Nc1cccc(C(F)(F)F)c1)C(=O)N[C@H]1[C@@H]2CC3C[C@H]1C[C@](O)(C3)C2 [Compound 60] |
| 1 to 10 µM | < 1 µM | Cc1ccccc1NC(C)(C)C(=O)N[C@H]1[C@@H]2CC3C[C@H]1C[C@](O)(C3)C2 [Compound 34] |
| > 10 µM | < 1 µM | CC(C)(Oc1ccc(Cl)cc1)C(=O)N[C@H]1[C@@H]2CC3C[C@H]1C[C@](N)(C3)C2 [Compound 95] |
| > 10 µM | < 1 µM | CC(C)(Oc1cccc(Cl)c1)C(=O)N[C@H]1[C@@H]2CC3C[C@H]1C[C@](N)(C3)C2 [Compound 85] |
| 1 to 10 µM | < 1 µM | COc1cc(OC)cc(OC(C)(C)C(=O)N[C@H]2[C@@H]3CC4C[C@H]2C[C@](O)(C4)C3)c1 [Compound 17] |
| 1 to 10 µM | < 1 µM | O=C(N[C@H]1[C@@H]2CC3C[C@H]1C[C@](O)(C3)C2)[C@@H]1CCc2cc(F)ccc2O1 [Compound 22] |
| > 10 µM | < 1 µM | Cc1cccc(NC(C)(C)C(=O)N[C@H]2[C@@H]3CC4C[C@H]2C[C@](F)(C4)C3)c1 [Compound 57] |
| 1 to 10 µM | < 1 µM | Cc1cc(Cl)ccc1OC(C)(C)C(=O)N[C@H]1[C@@H]2CC3C[C@H]1C[C@](NC(=O)CN1CCOCC1)(C3)C2 [Compound 73] |
| 1 to 10 µM | < 1 µM | Cc1ccc(OC(C)(C)C(=O)N[C@H]2[C@@H]3CC4C[C@H]2C[C@](OC(=O)CN2CCOCC2)(C4)C3)cc1 [Compound 41] |
| < 1 µM | < 1 µM | CC(C)(C(=O)N[C@H]1[C@@H]2CC3C[C@H]1C[C@](O)(C3)C2)S(=O)(=O)c1ccc(Cl)cc1 [Compound 3] |
| 1 to 10 µM | < 1 µM | CC(C)(Oc1ccc(Cl)cc1)C(=O)N[C@H]1[C@@H]2CC3C[C@H]1C[C@](O)(C3)C2 [Compound 67] |
| 1 to 10 µM | < 1 µM | Cc1cccc(OC(C)(C)C(=O)N[C@H]2[C@@H]3CC4C[C@H]2C[C@](O)(C4)C3)c1 [Compound 10] |
| < 1 µM | < 1 µM | CN(C)c1cccc(OC(C)(C)C(=O)N[C@H]2[C@@H]3CC4C[C@H]2C[C@](O)(C4)C3)c1 [Compound 18] |
| 1 to 10 µM | < 1 µM | Cc1ccc(OC(C)(C)C(=O)N[C@H]2[C@@H]3CC4C[C@H]2C[C@](OC(=O)Nc2cccc(C)c2)(C4)C3)cc1 [Compound 47] |
| 1 to 10 µM | < 1 µM | Cc1ccccc1NC(C)(C)C(=O)N[C@H]1[C@@H]2CC3C[C@H]1C[C@](F)(C3)C2 [Compound 35] |
| 1 to 10 µM | < 1 µM | COc1cccc(NC(C)(C)C(=O)N[C@H]2[C@@H]3CC4C[C@H]2C[C@](NC(C)=O)(C4)C3)c1 [Compound 66] |
| > 10 µM | < 1 µM | CC(C)(Nc1ccccc1)C(=O)N[C@H]1[C@@H]2CC3C[C@H]1C[C@](O)(C3)C2 [Compound 54] |
| < 1 µM | < 1 µM | CC(C)(Oc1cccc(Cl)c1)C(=O)N[C@H]1[C@@H]2CC3C[C@H]1C[C@](O)(C3)C2 [Compound 43] |
| < 1 µM | < 1 µM | CC(C)(Oc1ccccc1Br)C(=O)N[C@H]1[C@@H]2CC3C[C@H]1C[C@](O)(C3)C2 [Compound 15] |
| 1 to 10 µM | < 1 µM | CN(C)S(=O)(=O)N[C@@]12CC3C[C@H](C1)[C@H](NC(=O)C(C)(C)Oc1cccc(C(F)(F)F)c1)[C@@H](C3)C2 [Compound 92] |

Second part, the compound before the results:

| Compound | IC50 (11β-HSD2) | IC50 (11β-HSD1) |
| --- | --- | --- |
| Cc1ccc(OC(C)(C)C(=O)N[C@@H]2[C@@H]3CC4C[C@H]2C[C@](OCc2ccccc2)(C4)C3)cc1 [Compound 48] | < 1 µM | < 1 µM |
| Cc1ccccc1OC(C)(C)C(=O)N[C@H]1[C@@H]2CC3C[C@H]1C[C@](O)(C3)C2 [Compound 12] | < 1 µM | < 1 µM |
| CC(C)(Oc1cccc(C(F)(F)F)c1)C(=O)N[C@H]1[C@@H]2CC3C[C@H]1C[C@](O)(C3)C2 [Compound 20] | < 1 µM | < 1 µM |
| COc1cccc(OC(C)(C)C(=O)N[C@H]2[C@@H]3CC4C[C@H]2C[C@](O)(C4)C3)c1 [Compound 14] | < 1 µM | < 1 µM |
| Cc1cc(Cl)ccc1OC(C)(C)C(=O)N[C@H]1[C@@H]2CC3C[C@H]1C[C@](NC(=O)CN(C)CCO)(C3)C2 [Compound 42] | 1 to 10 µM | < 1 µM |
| Cc1c(C(=O)N[C@H]2[C@@H]3CC4C[C@H]2C[C@](O)(C4)C3)oc2ccccc12 [Compound 7] | > 10 µM | < 1 µM |
| CC(=O)N[C@@]12CC3C[C@H](C1)[C@H](NC(=O)C(C)(C)Nc1cccc(C)c1)[C@@H](C3)C2 [Compound 70] | 1 to 10 µM | < 1 µM |
| CCS(=O)(=O)N[C@@]12CC3C[C@H](C1)[C@H](NC(=O)C(C)(C)Oc1cccc(C(F)(F)F)c1)[C@@H](C3)C2 [Compound 87] | 1 to 10 µM | < 1 µM |
| Cc1cc(Cl)ccc1OC(C)(C)C(=O)N[C@H]1[C@@H]2CC3C[C@H]1C[C@](NS(C)(=O)=O)(C3)C2 [Compound 33] | 1 to 10 µM | < 1 µM |
| Cc1cc(C)cc(OC(C)(C)C(=O)N[C@H]2[C@@H]3CC4C[C@H]2C[C@](O)(C4)C3)c1 [Compound 16] | < 1 µM | < 1 µM |
| CC(C)(Oc1cccc(C(F)(F)F)c1)C(=O)N[C@H]1[C@@H]2CC3C[C@H]1C[C@](NS(=O)(=O)CC(F)(F)F)(C3)C2 [Compound 88] | 1 to 10 µM | < 1 µM |
| Cc1ccc(OC(C)(C)C(=O)N[C@H]2[C@@H]3CC4C[C@H]2C[C@](OCc2ccccc2)(C4)C3)cc1 [Compound 52] | 1 to 10 µM | < 1 µM |
| CC(=O)Nc1cccc(OC(C)(C)C(=O)N[C@H]2[C@@H]3CC4C[C@H]2C[C@](O)(C4)C3)c1 [Compound 19] | < 1 µM | < 1 µM |
| Cc1cc(Cl)ccc1OC(C)(C)C(=O)N[C@H]1[C@@H]2CC3C[C@H]1C[C@](C(=O)O)(C3)C2 [Compound 50] | 1 to 10 µM | < 1 µM |
| Cc1cc(Cl)ccc1OC(C)(C)C(=O)N[C@H]1[C@@H]2CC3C[C@H]1C[C@](NC(=O)CCl)(C3)C2 [Compound 31] | 1 to 10 µM | < 1 µM |
| Cc1ccc(OC(C)(C)C(=O)N[C@H]2[C@@H]3CC4C[C@H]2C[C@](O)(C4)C3)cc1 [Compound 13] | < 1 µM | < 1 µM |
| Cc1ccc2c(c1)NCC(C(=O)N[C@H]1[C@@H]3CC4C[C@H]1C[C@](O)(C4)C3)O2 (some centres unmarked) [Compound 11] | 1 to 10 µM | < 1 µM |
| Cc1cc(Cl)ccc1OC(C)(C)C(=O)N[C@H]1[C@@H]2CC3C[C@H]1C[C@](NC(=O)CC(C)C)(C3)C2 [Compound 64] | 1 to 10 µM | < 1 µM |
| CC(C)(Oc1cccc(Br)c1)C(=O)N[C@H]1[C@@H]2CC3C[C@H]1C[C@](NC(=O)CCl)(C3)C2 [Compound 90] | 1 to 10 µM | < 1 µM |
| Cc1cc(Cl)ccc1OC(C)(C)C(=O)N[C@H]1[C@@H]2CC3C[C@H]1C[C@](O)(C3)C2 [Compound 1] | < 1 µM | < 1 µM |
| Cc1cc(Cl)ccc1OC(C)(C)C(=O)N[C@H]1[C@@H]2CC3C[C@H]1C[C@](N)(C3)C2 [Compound 32] | > 10 µM | < 1 µM |
| CCOC(=O)N[C@@]12CC3C[C@H](C1)[C@H](NC(=O)C(C)(C)Oc1ccc(Cl)cc1C)[C@@H](C3)C2 [Compound 45] | 1 to 10 µM | < 1 µM |
